Laboratory results: ChEMBL document CHEMBL1201862, “PubChem BioAssay data set” (2004)
The source made the active and inactive calls.

How the values were obtained:
Cytochrome P450 2D6 = Cytochrome P450 2D6 (Homo sapiens, UniProt P10635);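 also: CYP2D6 member of a cytochrome P450 panel assay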
Cytochrome P450 2C9 [1] = molecular target: T1, Cytochrome P450 2C9 (Homo sapiens, UniProt P11712)
[2] = molecular target: Glucose-6-phosphate 1-dehydrogenase (Homo sapiens, UniProt P11413); test: inhibition of Homo sapiens G6PD, dose series – biochemical, fluorescence, selectivity assay for P. falciparum G6PD inhibitor project, dose response (AID 504792); assay type: functional
Chain of Glucose-6-phosphate 1-dehydrogenase (P11413 whole entry): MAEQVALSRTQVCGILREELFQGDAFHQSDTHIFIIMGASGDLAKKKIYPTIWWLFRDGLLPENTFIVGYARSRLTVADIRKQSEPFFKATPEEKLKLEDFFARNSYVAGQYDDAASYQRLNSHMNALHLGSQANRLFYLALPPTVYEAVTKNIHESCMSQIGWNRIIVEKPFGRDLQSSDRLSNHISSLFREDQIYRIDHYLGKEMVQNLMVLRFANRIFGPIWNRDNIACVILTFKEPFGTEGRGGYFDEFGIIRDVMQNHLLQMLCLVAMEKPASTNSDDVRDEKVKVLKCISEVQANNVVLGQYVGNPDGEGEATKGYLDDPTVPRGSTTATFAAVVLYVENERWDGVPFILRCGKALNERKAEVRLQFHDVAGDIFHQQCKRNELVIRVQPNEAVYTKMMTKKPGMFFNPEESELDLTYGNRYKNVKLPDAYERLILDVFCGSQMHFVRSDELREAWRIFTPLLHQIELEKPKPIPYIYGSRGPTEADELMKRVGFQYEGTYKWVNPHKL

[3] = A cytotoxicity screen of small molecule inhibitors of the PhoP region in Salmonella typhi identified in the primary screen. [Related pubchem assays: 1850, 1864, 1985 ]; assay type: functional
[4] = molecular target: Luciferin 4-monooxygenase (Photinus pyralis, UniProt P08659); test: Counter Screen for Luciferase-based Assay Positives. [Related pubchem assays: 620, 618, 411 ]
Chain of Luciferin 4-monooxygenase (P08659 whole entry): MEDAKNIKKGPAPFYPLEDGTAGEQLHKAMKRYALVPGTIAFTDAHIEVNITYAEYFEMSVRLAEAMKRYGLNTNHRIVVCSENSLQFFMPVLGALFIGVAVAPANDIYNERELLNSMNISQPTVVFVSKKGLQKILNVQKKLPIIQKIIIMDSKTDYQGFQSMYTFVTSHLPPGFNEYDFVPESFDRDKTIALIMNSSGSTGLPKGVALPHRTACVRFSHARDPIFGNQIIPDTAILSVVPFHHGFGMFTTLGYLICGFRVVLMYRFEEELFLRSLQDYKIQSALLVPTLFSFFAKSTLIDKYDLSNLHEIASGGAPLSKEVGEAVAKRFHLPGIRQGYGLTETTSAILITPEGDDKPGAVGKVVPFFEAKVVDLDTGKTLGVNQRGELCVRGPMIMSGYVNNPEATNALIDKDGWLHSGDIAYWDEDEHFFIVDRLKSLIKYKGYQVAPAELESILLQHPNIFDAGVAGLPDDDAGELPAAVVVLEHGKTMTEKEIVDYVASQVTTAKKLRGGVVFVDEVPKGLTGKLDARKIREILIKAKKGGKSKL

HT-1080 = test: HT1080 cell viability loss – fluorescence readout (AID 620); assay type: functional, cell-based; conditions: Homo sapiens
[5] = molecular target: T2, Sentrin-specific protease 8 (Homo sapiens, UniProt Q96LD8); assay type: functional
T2 sequence (Q96LD8 whole entry): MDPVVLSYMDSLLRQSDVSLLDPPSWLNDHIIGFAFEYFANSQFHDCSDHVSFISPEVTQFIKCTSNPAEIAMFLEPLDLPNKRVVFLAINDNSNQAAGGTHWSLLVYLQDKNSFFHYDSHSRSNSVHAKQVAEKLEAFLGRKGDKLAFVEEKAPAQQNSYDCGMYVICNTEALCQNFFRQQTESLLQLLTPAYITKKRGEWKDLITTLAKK

[6] = molecular target: T2, Sentrin-specific protease 8; assay type: functional; remark: listed apart in the source
Vero = test: viability of Vero cells under compound – cytotoxicity control for flavivirus capping enzyme inhibitors (AID 588742); assay type: functional; conditions: Chlorocebus sabaeus
[7] = NIH3T3 cell viability loss – ATP luminescence, mouse fibroblasts, counter-screen, dose response (AID 2010); assay type: functional, cell-based;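 also: cells exposed to compound for about 90 hours before reading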
[8] = Trypanosoma cruzi growth suppression in host cells – NIH3T3 host cells, beta-gal luminescence, confirmation (AID 2044); assay type: functional, cell-based;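 also: intracellular parasites grown in NIH/3T3 mouse fibroblasts as host cells; luminescent beta-galactosidase reporter signal from transgenic T. cruzi replicating inside host cells; inhibitors lower the luminescence signal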
Cytochrome P450 3A4 = Cytochrome P450 3A4 (Homo sapiens, UniProt P08684); conditions: Potency;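 also: confirmatory qHTS run detecting inhibitors and substrates of CYP3A4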
Chain of Cytochrome P450 3A4 (P08684 whole entry): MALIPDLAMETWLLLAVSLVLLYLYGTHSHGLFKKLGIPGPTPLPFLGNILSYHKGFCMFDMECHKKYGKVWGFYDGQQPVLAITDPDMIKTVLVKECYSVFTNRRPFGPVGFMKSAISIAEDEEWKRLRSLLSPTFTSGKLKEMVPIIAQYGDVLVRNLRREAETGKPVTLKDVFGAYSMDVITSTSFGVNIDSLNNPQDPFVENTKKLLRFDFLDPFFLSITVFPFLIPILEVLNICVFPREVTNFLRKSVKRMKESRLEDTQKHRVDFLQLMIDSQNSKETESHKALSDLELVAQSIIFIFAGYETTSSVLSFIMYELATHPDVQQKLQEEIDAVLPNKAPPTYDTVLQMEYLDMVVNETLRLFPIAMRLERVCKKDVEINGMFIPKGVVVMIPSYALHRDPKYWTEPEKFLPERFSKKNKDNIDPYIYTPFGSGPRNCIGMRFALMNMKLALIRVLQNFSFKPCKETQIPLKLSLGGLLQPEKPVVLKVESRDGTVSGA

[9] = molecular target: T3, Short transient receptor potential channel 4 (Mus musculus, UniProt Q9QUQ5); test: block of DAMGO-driven TRPC4 calcium entry – cell-based, HEK293 TRPC4/mu-opioid, Fluo-4 calcium, dose response (AID 434942); assay type: functional;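 also: potency of inhibitors blocking the TRPC4 calcium response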
T3 sequence (Q9QUQ5 whole entry): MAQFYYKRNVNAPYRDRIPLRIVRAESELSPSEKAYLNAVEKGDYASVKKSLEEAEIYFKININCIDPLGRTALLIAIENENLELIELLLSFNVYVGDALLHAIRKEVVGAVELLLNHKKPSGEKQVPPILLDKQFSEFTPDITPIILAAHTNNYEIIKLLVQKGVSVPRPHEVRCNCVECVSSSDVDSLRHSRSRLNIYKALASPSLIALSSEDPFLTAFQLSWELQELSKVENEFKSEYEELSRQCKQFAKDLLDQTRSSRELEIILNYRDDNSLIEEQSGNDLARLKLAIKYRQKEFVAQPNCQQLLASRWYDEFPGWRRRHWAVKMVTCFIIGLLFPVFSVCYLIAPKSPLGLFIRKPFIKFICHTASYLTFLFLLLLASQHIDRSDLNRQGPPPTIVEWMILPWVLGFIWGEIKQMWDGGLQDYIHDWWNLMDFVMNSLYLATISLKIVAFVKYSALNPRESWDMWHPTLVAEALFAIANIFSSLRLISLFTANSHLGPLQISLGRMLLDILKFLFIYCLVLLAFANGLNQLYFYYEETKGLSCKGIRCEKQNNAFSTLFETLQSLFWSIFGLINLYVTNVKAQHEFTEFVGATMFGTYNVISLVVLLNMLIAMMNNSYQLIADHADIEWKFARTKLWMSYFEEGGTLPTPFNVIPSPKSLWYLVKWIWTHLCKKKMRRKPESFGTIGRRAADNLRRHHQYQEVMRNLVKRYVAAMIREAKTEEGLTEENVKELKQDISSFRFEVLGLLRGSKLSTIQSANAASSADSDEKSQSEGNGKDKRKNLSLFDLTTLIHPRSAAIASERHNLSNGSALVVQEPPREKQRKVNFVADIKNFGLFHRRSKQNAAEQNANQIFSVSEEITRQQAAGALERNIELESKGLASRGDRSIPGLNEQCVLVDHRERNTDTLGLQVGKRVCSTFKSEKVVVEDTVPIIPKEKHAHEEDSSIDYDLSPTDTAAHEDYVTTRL

[10] = molecular target: T3, Short transient receptor potential channel 4; test: calcium entry via TRPC4 opening agents – cell-based, HEK293 TRPC4/mu-opioid, Fluo-4 calcium, dose response (AID 434937); assay type: functional
Escherichia coli = test: microbe, parasite or virus in culture
[11] = molecular target: Glyceraldehyde-3-phosphate dehydrogenase (Homo sapiens, UniProt P04406)
Chain of Glyceraldehyde-3-phosphate dehydrogenase (P04406 whole entry): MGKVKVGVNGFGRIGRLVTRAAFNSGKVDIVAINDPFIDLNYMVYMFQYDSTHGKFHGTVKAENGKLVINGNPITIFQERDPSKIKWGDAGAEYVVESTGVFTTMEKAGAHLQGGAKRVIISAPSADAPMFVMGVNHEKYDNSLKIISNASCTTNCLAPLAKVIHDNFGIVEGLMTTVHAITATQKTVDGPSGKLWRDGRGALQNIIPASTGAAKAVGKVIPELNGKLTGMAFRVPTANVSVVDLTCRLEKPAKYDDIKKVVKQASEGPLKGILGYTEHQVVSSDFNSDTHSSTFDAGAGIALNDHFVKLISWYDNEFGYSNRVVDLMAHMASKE

HEK293 = test: EBV LMP1 TES2 canonical NF-kB signalling blockers – cell-based, HEK293, luciferase, cherry-pick, dose response (AID 588343); assay type: functional; conditions: Homo sapiens
[12] = luciferase reporter signal suppression in cells – H4 neuroglioma cells, luminescence, dose response (AID 1990); assay type: functional, cell-based
[13] = Luminescence Cell-Based Dose Response HTS to Identify Inhibitors of 5'UTR Stem-Loop Driven Prion Protein mRNA Translation in H4 Neuroglioblastoma Cells. [Related pubchem assays: 1827 (Project Summary), 1813 (Primary HTS)]; assay type: functional
[14] = alpha-synuclein stem-loop luciferase translation blockers – H4 neuroglioma cells, luminescence, confirmation (AID 1988); assay type: functional, cell-based
Cytochrome P450 2C9 [15] = molecular target: T1, Cytochrome P450 2C9; remark: listed apart in the source
Prothrombin = Prothrombin (Homo sapiens, UniProt P00734); test: Thrombin 1536 HTS Dose Response Confirmation. [Related pubchem assays: 1046 (Thrombin 1536 HTS; hits were confirmed in this assay)]; assay type: functional
Coagulation factor XII = molecular target: T4, Coagulation factor XII (Homo sapiens, UniProt P00748); assay type: functional;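 also: activated factor XIIa alpha cleaving a fluorogenic AMC peptide substrate; inhibitor potency from loss of enzyme activity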
T4 sequence (P00748 whole entry): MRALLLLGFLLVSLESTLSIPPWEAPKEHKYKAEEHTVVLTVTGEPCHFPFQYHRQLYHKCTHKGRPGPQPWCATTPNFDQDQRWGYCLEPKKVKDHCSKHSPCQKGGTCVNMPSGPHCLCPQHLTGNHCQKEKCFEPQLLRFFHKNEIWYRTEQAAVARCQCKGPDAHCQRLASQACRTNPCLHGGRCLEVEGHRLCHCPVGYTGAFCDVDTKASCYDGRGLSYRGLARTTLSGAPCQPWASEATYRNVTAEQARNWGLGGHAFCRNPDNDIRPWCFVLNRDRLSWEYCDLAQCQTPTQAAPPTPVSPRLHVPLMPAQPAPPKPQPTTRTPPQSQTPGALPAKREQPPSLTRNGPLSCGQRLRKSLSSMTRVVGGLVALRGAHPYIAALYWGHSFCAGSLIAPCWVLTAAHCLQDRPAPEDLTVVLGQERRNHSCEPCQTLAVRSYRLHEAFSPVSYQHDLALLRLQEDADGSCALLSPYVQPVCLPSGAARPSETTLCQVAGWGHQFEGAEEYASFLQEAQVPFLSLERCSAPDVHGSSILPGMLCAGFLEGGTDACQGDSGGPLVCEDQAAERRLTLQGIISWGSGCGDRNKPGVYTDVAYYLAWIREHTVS

T1 sequence (P11712 whole entry): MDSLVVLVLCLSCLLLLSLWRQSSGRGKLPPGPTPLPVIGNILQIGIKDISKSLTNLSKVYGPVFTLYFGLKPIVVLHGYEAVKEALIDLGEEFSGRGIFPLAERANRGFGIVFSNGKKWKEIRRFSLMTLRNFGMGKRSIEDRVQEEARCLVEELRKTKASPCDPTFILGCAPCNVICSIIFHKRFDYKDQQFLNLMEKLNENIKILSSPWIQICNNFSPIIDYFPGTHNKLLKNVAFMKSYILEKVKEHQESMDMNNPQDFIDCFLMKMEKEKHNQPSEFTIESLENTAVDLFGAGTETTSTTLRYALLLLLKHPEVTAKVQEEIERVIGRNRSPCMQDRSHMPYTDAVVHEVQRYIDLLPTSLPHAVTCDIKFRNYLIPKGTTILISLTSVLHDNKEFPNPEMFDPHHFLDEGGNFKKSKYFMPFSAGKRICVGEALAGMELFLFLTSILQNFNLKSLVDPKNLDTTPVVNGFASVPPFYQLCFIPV
Chain of Cytochrome P450 2D6 (P10635 whole entry): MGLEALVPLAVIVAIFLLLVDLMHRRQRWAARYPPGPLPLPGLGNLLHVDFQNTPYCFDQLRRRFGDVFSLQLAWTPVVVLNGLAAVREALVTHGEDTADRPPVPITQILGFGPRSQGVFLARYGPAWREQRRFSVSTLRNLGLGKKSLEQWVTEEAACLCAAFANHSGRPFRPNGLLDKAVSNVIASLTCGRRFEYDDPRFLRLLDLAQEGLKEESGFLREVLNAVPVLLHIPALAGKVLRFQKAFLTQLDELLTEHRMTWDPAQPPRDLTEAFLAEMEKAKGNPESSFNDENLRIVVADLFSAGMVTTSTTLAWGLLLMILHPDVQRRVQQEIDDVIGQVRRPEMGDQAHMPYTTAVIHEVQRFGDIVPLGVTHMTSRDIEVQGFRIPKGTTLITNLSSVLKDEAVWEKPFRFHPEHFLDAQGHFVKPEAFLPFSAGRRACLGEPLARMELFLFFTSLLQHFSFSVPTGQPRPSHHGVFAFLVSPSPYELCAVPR

Cc1ccc(NS(=O)(=O)c2ccccc2Cl)c2c1CC(C)(C)O2
AC50 (Cytochrome P450 2D6): 15.8 µM (inconclusive)
AC50 (Cytochrome P450 2C9 [1]): inconclusive
IC50 [2]: > 80 µM (inactive)

COc1ccccc1-c1cc2nc(C)c(CCC(=O)NC(C)CCc3ccco3)c(C)n2n1 (stereo not drawn)
EC50 [3]: > 50 µM (active)

Cc1ccc(CNc2nc3ccccc3s2)s1
EC50 [4]: 14.4 µM (active)
EC50 (HT-1080): > 50 µM (not active)

Cc1cc(Cl)ccc1OCCCC(=O)N1CCCc2ccccc21
EC50 [3]: > 50 µM (active)

COc1ccc(C(=O)c2c3ccc([N+](=O)[O-])cc3[n+]([O-])n2CCCN)cc1
IC50 [5]: 14.4 µM (active)
IC50 [6]: 9.21 µM (active)
CC50 (Vero): 30.6 µM (active)

CCn1cc(/C=C/C(=O)Nc2ccn(Cc3c(F)c(F)cc(F)c3F)n2)cn1
IC50 [5]: 28.9 µM (active)
IC50 [6]: 9.64 µM (active)

CC(C)c1ccc2oc(-c3ccc(N)cc3)nc2c1
EC50 [4]: 12.3 µM (active)
EC50 (HT-1080): > 50 µM (not active)

O=C(NCC(c1cccnc1)N1CCN(c2ccc(F)cc2)CC1)OCc1ccccc1 (stereo not drawn)
EC50 [7]: > 60 µM (not active)
EC50 [8]: < 0.1 µM (active)
EC50 (cells): 0.089 µM (active)

CCN1CCCC1CNC(=O)c1cc2cc(F)ccc2[nH]1 (stereo not drawn)
EC50 [3]: > 50 µM (active)

OC1CCN(Cc2ccc(OCc3ccccc3)cc2)CC1
EC50 [7]: > 60 µM (not active)
EC50 [8]: < 0.1 µM (active)
EC50 (cells): 0.207 µM (active)

CCCCCCC(=O)N(O)C1CC(=O)N(Cc2ccccc2)C1=O (stereo not drawn)
EC50 [3]: > 50 µM (active)

CC1(C)CC[C@]2(C(=O)O)C(O)C[C@@]3(C)C(=CCC4[C@@]5(C)CCC(O)C(C)(C)C5CC[C@@]43C)C2C1 (stereo partly drawn)
AC50 (Cytochrome P450 3A4): 15.8 µM (inconclusive)

CCOC(=O)c1ccc(NC(=O)CN2CCc3ccccc3C2)cc1
IC50 [5]: > 100 µM (inactive)
IC50 [6]: 21.6 µM (active)

CCOc1ccc(OCc2ccc(C(=O)O)o2)cc1
EC50 [4]: 0.36 µM (active)
EC50 (HT-1080): > 50 µM (not active)

O=C(Nc1ccccc1)Oc1cccnc1O
EC50 [3]: > 50 µM (active)

CN(C)CCCN(C(=O)c1ccc(S(=O)(=O)N(C)C)cc1)c1nc2ccc(F)cc2s1
EC50 [9]: 5.96 µM (active)
EC50 [7]: > 60 µM (not active)
EC50 [8]: < 0.1 µM (active)
EC50 (cells): 0.012 µM (active)
EC50 [10]: 9.44 µM (active)

COc1ccccc1NS(=O)(=O)c1cccc(NC2=NC(=N)c3ccccc32)c1
AC50 (Escherichia coli): 99.5 µM (active)

COC(=O)C1(S(=O)(=O)C2(C(=O)OC)CCCC2)CCCC1
AC50 (Escherichia coli): > 150 µM (inactive)

CC(C)Sc1nc2c(c(=O)[nH]c(=O)n2C)n1CCc1ccccc1
AC50 (Escherichia coli): 33.2 µM (active)

CCCn1c(-c2ccc(F)cc2)nc2c(NCC3CCCN3CC)nc(C)nc21 (stereo not drawn)
AC50 (Cytochrome P450 3A4): 15.8 µM (inconclusive)

CC(=O)OC1CC2C(C)(C)C(O)CCC2(C)C2CC[C@]3(C)C(=CC(=O)OC3c3ccoc3)C12C (stereo partly drawn)
AC50 (Cytochrome P450 3A4): 39.8 µM (inconclusive)

O=C(Nc1ccccc1)C12CC3CC(C1)CC(n1cnc([N+](=O)[O-])n1)(C3)C2
EC50 [7]: > 60 µM (not active)
EC50 [8]: < 0.1 µM (active)
EC50 (cells): 0.06 µM (active)

COc1ccc(NC(=O)c2cc(Br)c(Br)s2)cn1
EC50 [3]: > 50 µM (active)

COc1ccc(CCn2c(NN)nc3c2c(=O)[nH]c(=O)n3C)cc1
IC50 [2]: 50.2 µM (inactive)

O=C(O)c1cccc(C(=O)Nc2cccc(NC(=O)C3CCCO3)c2)c1 (stereo not drawn)
IC50 [11]: > 100 µM (not active)
EC50 [4]: 56.3 µM (active)
EC50 (HT-1080): > 50 µM (not active)

COc1ccccc1NC(=O)CN1CCN(c2ccccc2)CC1
EC50 [3]: > 50 µM (active)

Clc1ccc2nc(-c3ccc4c(c3)OCO4)cn2c1
AC50 (HEK293): 4.13 µM (active)
IC50 [2]: > 80 µM (inactive)

C[N+]1(C)CCC(=C2c3ccccc3CC(=O)c3sccc32)CC1
IC50 [5]: 30.4 µM (active)
IC50 [6]: 12.6 µM (active)

CC(=O)N(Cc1ccc(F)cc1)c1cccc(C)c1C
AC50 (Escherichia coli): 23.7 µM (active)

Cn1c(-c2ccccc2)cnc1SCC(=O)N1CCCCC1
EC50 [12]: 8.1 µM (inconclusive)
EC50 [4]: 22.8 µM (active)
AC50 (HEK293): 2.47 µM (active)
EC50 [13]: 5.72 µM (active)
EC50 [14]: 3.2 µM (active)
EC50 (HT-1080): > 50 µM (not active)

COc1cccc(C(=O)Nc2nnc(C(C)C)s2)c1
IC50 [2]: 52.7 µM (inactive)

Cc1ccccc1NC1=NC(=S)N(c2ccccc2)C12CCOC(C)(C)C2 (stereo not drawn)
AC50 (Escherichia coli): 22.6 µM (active)
AC50 (Cytochrome P450 2C9 [15]): 11.2 µM (inconclusive)

Cc1ccc2c(c1)C1CN(C)CCC1N2C(=O)c1ccc(Cl)c(S(=O)(=O)N2CCOCC2)c1 (stereo not drawn)
EC50 [7]: > 60 µM (not active)
EC50 [8]: < 0.1 µM (active)
EC50 (cells): 0.199 µM (active)

NS(=O)(=O)c1ccc(CCNC(=O)Cc2ccccc2[N+](=O)[O-])cc1
IC50 (Prothrombin): > 50 µM (not active)
IC50 (Coagulation factor XII): > 50 µM (inactive)

COc1ccc(CCn2c(NN=C(C)C)nc3c2c(=O)[nH]c(=O)n3C)cc1
IC50 [2]: 77.8 µM (inactive)

O=C(CSc1cccc[n+]1[O-])Nc1ccccc1C(F)(F)F
AC50 (Escherichia coli): 48.6 µM (active)

CCC(CC)C(=O)N(C)c1c(C)nc2c(OCC=C(C)C)cccn12
IC50 [5]: > 100 µM (inactive)
IC50 [6]: 33.4 µM (active)

O=C(/C=C(\O)c1ccccc1)c1ccccc1O [2',beta-DIHYDROXYCHALCONE]
AC50 (Cytochrome P450 3A4): 15.8 µM (inconclusive)

COc1ccc(C2CC(=O)c3ccc(OC)cc3O2)cc1 (stereo not drawn) [LIQUIRITIGENIN DIMETHYL ETHER]
AC50 (Cytochrome P450 3A4): 20 µM (inconclusive)

CC1=C(/C=C/C(C)=C/C=C/C(C)=C/C=O)C(C)(C)CCC1 [RETINAL]
AC50 (Cytochrome P450 3A4): 12.6 µM (inconclusive)
